{"source": "patent US4452809A", "about": "“Trans-4-(2-chlorophenoxy)-1-ethyl-3-pyrrolidinol and anti-depressant use thereof” (A. H. Robins Company, Inc., priority 1983, dated 1984)", "key": {"[1]": {"system": "depressant effects induced by tetrabenazine", "assay": "Antitetrabenazine test in mice (blocking of tetrabenazine-induced depressant effects)", "assay_type": "in vivo", "settings": "Mus musculus, ip, compound intraperitoneally, tetrabenazine intravenously", "description": "Compounds preferred for their antidepressant activity have the formula: [drawing 4] Illustrative of the antidepressant activity of compounds of Formula Ia are the effective dosages determined by the foregoing anti-tetrabenazine test."}, "cardiac arrhythmia": {"system": "cardiac arrhythmia", "assay": "Counteracting of ouabain-induced cardiac arrhythmia in anesthetized dogs", "assay_type": "in vivo, adult mongrel dogs", "method": "The procedure is carried out under barbiturate anesthesia using adult mongrel dogs of either sex weighing from 8 to 14 kg. A Grass Model 7 polygraph was used for recording femoral arterial blood pressure (Statham P23AC Transducer) and the electrocardiogram (Grass 7P4 Preamplifier). Ouabian was given intravenously in an initial dose of 40γ/kg in a second dose of 20γ/kg, given 30 minutes after the first dose, and in subsequent doses of 10γ/kg which were repeated at 15 minute intervals as required for producing cardiac arrhythmias that persisted for at least 15 minutes. When the arrhythmias were established the test compounds were administered by infusion (Harvard Model 942 Infusion Pump) into a femoral vein at a rate of 1 mg/kg/min. Concentrations of compounds were adjusted according to the weight of the dog to allow a volume infusion of 1 ml/min. Compounds that are considered to be active as antiarrhythmic agents cause reversion to sinus rhythm which is maintained for at least 60 minutes."}}, "note": "Counter-ions that a name gives are not always drawn.", "data": [{"compound": "CN1C[C@@H](O)[C@H](Oc2ccccc2)C1", "note": "(relative stereo) [Example 3, Trans-1-methyl-4-phenoxy-3-pyrrolidinol]", "values": [{"measurement": "ED50", "setting": "[1]", "value": 3.7, "unit": "mg/kg"}]}, {"compound": "CCN1C[C@@H](O)[C@H](Oc2ccccc2)C1", "note": "(relative stereo) [Example 46, Trans-1-ethyl-4-phenoxy-3-pyrrolidinol Oxalate Hydrate (4:1)]", "values": [{"measurement": "ED50", "setting": "[1]", "value": 3.5, "unit": "mg/kg"}]}, {"compound": "CCN1C[C@@H](O)[C@H](Oc2c(Cl)cccc2Cl)C1", "note": "(relative stereo) [Example 49, Trans-4-(2,6-dichlorophenoxy)-1-ethyl-3-pyrrolidinol Hydrochloride]", "values": [{"measurement": "ED50", "setting": "[1]", "value": 4.8, "unit": "mg/kg"}]}, {"compound": "CCN1C[C@@H](O)[C@H](Oc2cccc3ccccc23)C1", "note": "(relative stereo) [Example 55, Trans-1-ethyl-4-(1-naphthalenyloxy)-3-pyrrolidinol Hydrochloride]", "values": [{"measurement": "minimal effective dose", "setting": "cardiac arrhythmia; Canis lupus familiaris, iv, 1 h, barbiturate anesthesia, ouabain arrhythmia, infusion into femoral vein 1 mg/kg/min, reversion to sinus rhythm maintained at least 60 minutes, read-out: antiarrhythmic activity, minimum effective dose", "value": 10.7, "unit": "mg/kg"}, {"measurement": "antiarrhythmic activity (in words)", "setting": "cardiac arrhythmia; ouabain-induced arrhythmia", "value": "exceptional antharrhythmic activity"}]}, {"compound": "CCN1C[C@@H](O)[C@H](Oc2ccccc2Cl)C1", "note": "(relative stereo) [Example 48, Trans-4-(2-chlorophenoxy)-1-ethyl-3-pyrrolidinol Hydrochloride]", "values": [{"measurement": "ED50", "setting": "[1]", "value": 2.8, "unit": "mg/kg"}]}]}
